Several values for one entry are separate records, joined by “and”; a condition that tells them apart may be missing. Identical values can stand only once. Inconclusive results and toxic doses are left out.

For this assay, the system named is P388 leukemia ip, CD2F1 mice, survival T/C. Kind of assay: NCI In Vivo Anticancer Drug Screen. Data for tumor model P388 Leukemia (intraperitoneal) in CD2F1 (CDF1) mice. The following applies: endpoint: median survival time, higher = longer survival. Put shortly: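 Mice carrying the transplanted tumor received test compound or vehicle. Survival was recorded in each group, and the value is the treated-group measurement divided by that of the vehicle-treated control group.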

Where [1] appears, read: dose: 60.0 mg/kg/injection, schedule: Q01DX005 (ip), vehicle: saline with Tween-80.
Setting [2] is: dose: 120.0 mg/kg/injection, schedule: Q01DX005 (ip), vehicle: saline with Tween-80.
Where [3] appears, read: dose: 240.0 mg/kg/injection, schedule: Q01DX005 (ip), vehicle: saline with Tween-80.
Setting [4] is: dose: 50.0 mg/kg/injection, schedule: Q01DX005 (ip), vehicle: Klucel (hydroxypropylcellulose) (HPC).
The mark [5] stands for this setting: dose: 100.0 mg/kg/injection, schedule: Q01DX005 (ip), vehicle: Klucel (hydroxypropylcellulose) (HPC).
[6] abbreviates: dose: 200.0 mg/kg/injection, schedule: Q01DX005 (ip), vehicle: Klucel (hydroxypropylcellulose) (HPC).
[7] abbreviates: dose: 50.0 mg/kg/injection, schedule: Q01DX009 (ip), vehicle: saline with Tween-80.
[8] abbreviates: dose: 100.0 mg/kg/injection, schedule: Q01DX009 (ip), vehicle: saline with Tween-80.
[9] abbreviates: dose: 200.0 mg/kg/injection, schedule: Q01DX009 (ip), vehicle: saline with Tween-80.
The mark [10] stands for this setting: dose: 100.0 mg/kg/injection, schedule: Q04DX003 (ip), vehicle: saline with Tween-80.

On to `Cc1cc2c(c3oc(C4(C)OC4C4OC4C)cc(=O)c13)C(=O)c1c(O)c(C3CC(C)(N(C)C)C(O)C(C)O3)cc(C3CC(N(C)C)C(O)C(C)O3)c1C2=O` (configuration not stated), for which the T/C was 150 % of control (dose: 0.02 mg/kg/injection, schedule: Q01DX005 (ip), vehicle: saline); 122 % of control (dose: 0.02 mg/kg/injection, schedule: Q03HX008 (ip), vehicle: saline); 113 % of control (dose: 0.02 mg/kg/injection, schedule: Q03HX016 (ip), vehicle: saline); 95 % of control (dose: 0.03 mg/kg/injection, schedule: Q01DX009 (ip), vehicle: saline); 118 % of control (dose: 0.03 mg/kg/injection, schedule: Q03HX008 (ip), vehicle: saline); 109 % of control (dose: 0.03 mg/kg/injection, schedule: Q03HX016 (ip), vehicle: saline). For the same molecule, the T/C (dose: 0.03 mg/kg/injection, schedule: Q04DX003 (ip), vehicle: saline) is 150 % of control; the T/C (dose: 0.06 mg/kg/injection, schedule: Q01DX005 (ip), vehicle: saline) was 100 % of control; the T/C (dose: 0.06 mg/kg/injection, schedule: Q01DX009 (ip), vehicle: saline) is 104 % of control; the T/C (dose: 0.06 mg/kg/injection, schedule: Q03HX008 (ip), vehicle: saline) was 122 % of control; the T/C (dose: 0.06 mg/kg/injection, schedule: Q04DX003 (ip), vehicle: saline) is 150 % of control; the T/C (dose: 0.06 mg/kg/injection, schedule: Q08DX002 (ip), vehicle: saline) is 150 % of control. The T/C is 150 % of control (dose: 0.12 mg/kg/injection, schedule: Q01DX001 (ip), vehicle: saline); 113 % of control (dose: 0.12 mg/kg/injection, schedule: Q03HX016 (ip), vehicle: saline); 123 % of control (dose: 6.25 micrograms/kg/injection, schedule: Q01DX009 (ip), vehicle: saline); 99 % of control (dose: 10.0 micrograms/kg/injection, schedule: Q01DX009 (ip), vehicle: water); 101 % of control (dose: 12.5 micrograms/kg/injection, schedule: Q01DX009 (ip), vehicle: saline).

As to `O=C1NC(=O)C(CCO)(c2ccccc2)C(=O)N1`, the T/C is, setting by setting: under setting [1], 88 % of control; under setting [2], 105 % of control; under setting [3], 100 % of control.

As for `OCCn1nc2c(c1-c1ccccn1)CCCc1ccccc1-2`, the T/C reads like this: (dose: 100.0 mg/kg/injection, schedule: Q04DX002 (ip), vehicle: gum acacia) 104 % of control; (dose: 200.0 mg/kg/injection, schedule: Q04DX002 (ip), vehicle: gum acacia) 97 % of control; (dose: 400.0 mg/kg/injection, schedule: Q04DX002 (ip), vehicle: gum acacia) 92 % of control.

With `CC1(C)OC2OC3C(CNCCO)OC(c4ccccc4)OC3C2O1` (configuration not stated), the T/C is, setting by setting: under setting [4], 107 % of control; under setting [5], 108 % of control; under setting [6], 101 % of control.

For `CC[N+](C)(CC)c1ccccc1`, the T/C was 103 % of control (dose: 25.0 mg/kg/injection, schedule: Q04DX002 (ip), vehicle: saline) and 104 % of control (dose: 50.0 mg/kg/injection, schedule: Q04DX002 (ip), vehicle: saline).

With `Cc1ccc(Cl)c(C(O)(C(F)(F)F)C(F)(F)F)c1`, the T/C was 95 % of control (dose: 100.0 mg/kg/injection, schedule: Q01DX001 (ip), vehicle: other); 108 % of control (dose: 100.0 mg/kg/injection, schedule: Q01DX001 (ip), vehicle: saline with Tween-80); 92 % of control (dose: 200.0 mg/kg/injection, schedule: Q01DX001 (ip), vehicle: other); 108 % of control (dose: 200.0 mg/kg/injection, schedule: Q01DX001 (ip), vehicle: saline with Tween-80); 93 % of control (dose: 400.0 mg/kg/injection, schedule: Q01DX001 (ip), vehicle: saline with Tween-80).

In the case of `Cc1ccccc1N1C(=O)C(=O)C(c2nc3ccccc3s2)C(=O)C1=O`, the T/C reads like this: under setting [1], 99 % of control; under setting [2], 98 % of control; under setting [3], 97 % of control.

For `CCCCCCCCCCCCCCCCS(=O)(=O)c1ccc(S(=O)(=O)F)cc1NC(C)=O`, the T/C (dose: 50.0 mg/kg/injection, schedule: Q04DX003 (ip), vehicle: saline sonified) was 104 % of control; the T/C (dose: 100.0 mg/kg/injection, schedule: Q04DX003 (ip), vehicle: saline sonified) was 95 % of control; the T/C (dose: 200.0 mg/kg/injection, schedule: Q04DX003 (ip), vehicle: saline sonified) is 100 % of control.

As for `CC1(CCl)Nc2ccccc2C(=O)N1c1ccc(Cl)cc1` (configuration not stated), the T/C by setting is: under setting [7], 94 % of control; under setting [8], 95 % of control; under setting [9], 89 % of control.

Turning to `CCCCCC(Cn1ccnc1)c1ccccc1Br` (configuration not stated), the T/C (dose: 25.0 mg/kg/injection, schedule: Q04DX003 (ip), vehicle: saline with Tween-80) is 106 % of control; the T/C (dose: 33.0 mg/kg/injection, schedule: Q04DX003 (ip), vehicle: saline with Tween-80) was 107 % of control; the T/C (dose: 50.0 mg/kg/injection, schedule: Q04DX003 (ip), vehicle: saline with Tween-80) was 100 % of control and 108 % of control and 122 % of control; the T/C (dose: 75.0 mg/kg/injection, schedule: Q04DX003 (ip), vehicle: saline with Tween-80) was 92 % of control; the T/C under setting [10] was 106 % of control and 111 % of control and 90 % of control.

As to `CNCC(=O)Nc1ccc(C2NC(=O)Cc3ccccc32)cc1` (configuration not stated), the T/C is 104 % of control (dose: 100.0 mg/kg/injection, schedule: Q04DX002 (ip), vehicle: saline) and 111 % of control (dose: 200.0 mg/kg/injection, schedule: Q04DX002 (ip), vehicle: saline).

As for `OC(CNc1ccccc1Cl)COc1ccc(Cl)cc1Cl` (configuration not stated), the T/C under setting [7] is 94 % of control, the T/C under setting [8] was 95 % of control and the T/C under setting [9] is 106 % of control.

On to `Cc1cc(C)nc(/C=C(\NC(=O)c2ccccc2)c2ccccc2)c1`, for which the T/C runs as follows: under setting [1], 108 % of control; under setting [2], 102 % of control; under setting [3], 101 % of control.

Consider `Nc1ccccc1C(=O)On1nnc2ccccc2c1=O`, for which the T/C runs as follows: (dose: 100.0 mg/kg/injection, schedule: Q01DX001 (ip), vehicle: Klucel (hydroxypropylcellulose) (HPC)) 103 % of control; (dose: 200.0 mg/kg/injection, schedule: Q01DX001 (ip), vehicle: Klucel (hydroxypropylcellulose) (HPC)) 103 % of control; (dose: 400.0 mg/kg/injection, schedule: Q01DX001 (ip), vehicle: Klucel (hydroxypropylcellulose) (HPC)) 100 % of control.

For the molecule `c1ccc([P+]23OCCN2CCO3)cc1`, the T/C was 104 % of control under setting [10]; 98 % of control (dose: 200.0 mg/kg/injection, schedule: Q04DX003 (ip), vehicle: saline with Tween-80); 102 % of control (dose: 400.0 mg/kg/injection, schedule: Q04DX003 (ip), vehicle: saline with Tween-80).

As for `Cc1ccccc1-n1cccc1C(=O)O`, the T/C is 95 % of control under setting [1], 93 % of control under setting [2] and 99 % of control under setting [3].

Take `OC[C@H]1N[C@H](CO)[C@@H](O)[C@H]1O`: the T/C runs as follows: (dose: 60.0 mg/kg/injection, schedule: Q01DX005 (ip), vehicle: saline) 100 % of control; (dose: 120.0 mg/kg/injection, schedule: Q01DX005 (ip), vehicle: saline) 99 % of control; (dose: 240.0 mg/kg/injection, schedule: Q01DX005 (ip), vehicle: saline) 103 % of control.

Take `COc1ccc(C(=O)C(CN2CCCC2)CN2CCCC2)cc1`: the T/C was 111 % of control (dose: 7.5 mg/kg/injection, schedule: Q01DX005 (ip), vehicle: saline); 112 % of control (dose: 7.5 mg/kg/injection, schedule: Q01DX009 (ip), vehicle: saline); 122 % of control (dose: 15.0 mg/kg/injection, schedule: Q01DX004 (ip), vehicle: saline); 121 % of control (dose: 15.0 mg/kg/injection, schedule: Q01DX005 (ip), vehicle: saline); 123 % of control (dose: 15.0 mg/kg/injection, schedule: Q01DX009 (ip), vehicle: saline); 115 % of control (dose: 30.0 mg/kg/injection, schedule: Q01DX004 (ip), vehicle: saline). For the same molecule, the T/C (dose: 60.0 mg/kg/injection, schedule: Q01DX004 (ip), vehicle: saline) was 108 % of control.

Consider `Cc1nc2ncn(-c3ccccc3)c2c(=O)n1Cc1ccco1`, for which the T/C by setting is: under setting [4], 103 % of control; under setting [5], 103 % of control; under setting [6], 95 % of control.

Source of the values: PubChem BioAssay AID330 (DTP/NCI, 2004).
